Measured values taken from patent US6150385A, “1,3,4-thiadiazoles useful for the treatment of CMV infections” (Pharmacia & Upjohn Company, priority 1999, dated 2000).

target: T1, HCMV polymerase (Human cytomegalovirus, UniProt P08546); assay: HCMV polymerase assay (scintillation proximity assay); type: biochemical; conditions: percentage of inhibition at 25 μM concentration in CMV polymerase assay
T1 construct: made in house; host or cells: SF-9 insect cells infected with recombinant baculovirus
Summary of the method: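 Values are percent inhibition at 25 μM, measured by scintillation proximity after capture of biotinylated poly(dA)-oligo(dT) (6 nM) extended with 90 nM 3H-dTTP. Recombinant SF-9-derived enzyme reacted 30 min at 25 or 37 °C in HEPES pH 7.5/KCl/MgCl2/BSA buffer, ±2 mM CHAPS, before EDTA termination.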

T1 sequence (P08546 whole entry): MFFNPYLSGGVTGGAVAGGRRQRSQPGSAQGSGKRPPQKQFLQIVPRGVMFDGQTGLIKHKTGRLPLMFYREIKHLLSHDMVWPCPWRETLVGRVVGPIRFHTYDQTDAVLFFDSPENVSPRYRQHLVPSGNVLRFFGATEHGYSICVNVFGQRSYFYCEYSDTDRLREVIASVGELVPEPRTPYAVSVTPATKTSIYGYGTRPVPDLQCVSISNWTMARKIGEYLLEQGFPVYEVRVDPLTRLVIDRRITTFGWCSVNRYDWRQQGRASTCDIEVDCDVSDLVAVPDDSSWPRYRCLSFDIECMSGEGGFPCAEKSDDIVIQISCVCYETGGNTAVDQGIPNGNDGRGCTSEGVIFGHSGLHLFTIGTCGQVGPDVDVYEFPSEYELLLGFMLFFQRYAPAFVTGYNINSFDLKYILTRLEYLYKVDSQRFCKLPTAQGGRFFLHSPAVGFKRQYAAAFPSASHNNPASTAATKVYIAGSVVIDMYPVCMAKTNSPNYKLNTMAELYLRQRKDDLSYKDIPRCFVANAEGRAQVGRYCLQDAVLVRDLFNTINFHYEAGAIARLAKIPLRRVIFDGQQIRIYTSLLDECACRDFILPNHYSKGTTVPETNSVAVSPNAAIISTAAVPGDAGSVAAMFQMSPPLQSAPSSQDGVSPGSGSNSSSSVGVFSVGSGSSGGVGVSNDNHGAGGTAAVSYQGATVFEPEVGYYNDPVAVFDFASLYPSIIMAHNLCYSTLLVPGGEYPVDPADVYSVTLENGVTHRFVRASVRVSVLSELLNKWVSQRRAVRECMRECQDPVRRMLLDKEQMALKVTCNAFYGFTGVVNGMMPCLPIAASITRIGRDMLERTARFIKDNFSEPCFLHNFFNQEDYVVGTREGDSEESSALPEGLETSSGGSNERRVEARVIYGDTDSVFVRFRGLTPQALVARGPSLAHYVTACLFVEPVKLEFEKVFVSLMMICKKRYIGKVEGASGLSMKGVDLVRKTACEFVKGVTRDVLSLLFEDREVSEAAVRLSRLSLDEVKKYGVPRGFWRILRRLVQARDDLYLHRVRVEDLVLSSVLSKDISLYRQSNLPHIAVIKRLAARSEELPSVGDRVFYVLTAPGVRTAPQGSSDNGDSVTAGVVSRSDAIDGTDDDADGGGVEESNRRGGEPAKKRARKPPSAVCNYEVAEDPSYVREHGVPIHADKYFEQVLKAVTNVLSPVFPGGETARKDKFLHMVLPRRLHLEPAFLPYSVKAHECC

SMILES	inhibition at 25 µM
CC1(C)C2CC[C@@H](CNc3nnc(NC(=O)CCCCCl)s3)C1C2 (stereo partly drawn) [compound 312, 5-chloro-N-[5-({[(2R)-6,6-dimethylbicyclo[3.1.1]hept-2-yl]methyl}amino)-1,3,4-thiadiazol-2-yl]pentanamide]	33.9%
CCCCCCCC/C=C/CCCCCCCC(=O)Nc1nnc(NCc2ccc(Cl)c(Cl)c2)s1 [compound 313, (E)-N-{5-[(3,4-dichlorobenzyl)amino]-1,3,4-thiadiazol-2-yl}-9-octadecenamide]	33.9%
CCOc1ccc2ccccc2c1C(=O)Nc1nnc(NC2CCC2)s1 [compound 314, N-[5-(cyclobutylamino)-1,3,4-thiadiazol-2-yl]-2-ethoxy-1-naphthamide]	33.8%
O=C(CCCCCl)Nc1nnc(NCC2CCCCC2)s1 [compound 315, 5-chloro-N-{5-[(cyclohexylmethyl)amino]-1,3,4-thiadiazol-2-yl}pentanamide]	33.8%
O=C(CCCCCl)Nc1nnc(NC2CCCCCC2)s1 [compound 316, 5-chloro-N-[5-(cycloheptylamino)-1,3,4-thiadiazol-2-yl]pentanamide]	33.6%
CC(C)c1cc(C(C)C)c(C(=O)Nc2nnc(NCCc3c[nH]cn3)s2)c(C(C)C)c1 [compound 317, N-(5-{[2-(1H-imidazol-4-yl)ethyl]amino}-1,3,4-thiadiazol-2-yl)-2,4,6-triisopropylbenzamide]	33.6%
CCOc1ccc2ccccc2c1C(=O)Nc1nnc(NCCSCC)s1 [compound 318, 2-ethoxy-N-(5-{[2-(ethylsulfanyl)ethyl]amino}-1,3,4-thiadiazol-2-yl)-1-naphthamide]	33.6%
CC(C)(C)CNc1nnc(NC(=O)/C=C/c2ccccc2Cl)s1 [compound 319, (E)-3-(2-chlorophenyl)-N-[5-(neopentylamino)-1,3,4-thiadiazol-2-yl]-2-propenamide]	33.5%
CC1(C)C2CC[C@@H](CNc3nnc(NC(=O)/C=C/c4ccccc4Cl)s3)C1C2 (stereo partly drawn) [compound 320, (E)-3-(2-chlorophenyl)-N-[5-({[(2R)-6,6-dimethylbicyclo[3.1.1]hept-2-yl]methyl}amino)-1,3,4-thiadiazol-2-yl]-2-propenamide]	33.5%
O=C(CCCCCl)Nc1nnc(NCc2ccc(F)cc2)s1 [compound 321, 5-chloro-N-{5-[(4-fluorobenzyl)amino]-1,3,4-thiadiazol-2-yl}pentanamide]	33.2%
O=C(/C=C/c1ccccc1Cl)Nc1nnc(NCCSc2ccccc2)s1 [compound 322, (E)-3-(2-chlorophenyl)-N-(5-{[2-(phenylsulfanyl)ethyl]amino}-1,3,4-thiadiazol-2-yl)-2-propenamide]	33.2%
Cc1ccc(C(=O)Nc2nnc(NC3CCCCCC3)s2)cc1 [compound 323, N-[5-(cycloheptylamino)-1,3,4-thiadiazol-2-yl]-4-methylbenzamide]	33%
O=C(Nc1nnc(NCCCn2ccnc2)s1)c1ccc(I)cc1 [compound 324, N-(5-{[3-(1H-imidazol-1-yl)propyl]amino}-1,3,4-thiadiazol-2-yl)-4-iodobenzamide]	32.9%
O=C(CCCCCl)Nc1nnc(NCCCN2CCCC2=O)s1 [compound 325, 5-chloro-N-(5-{[3-(2-oxo-1-pyrrolidinyl)propyl]amino}-1,3,4-thiadiazol-2-yl)pentanamide]	32.8%
O=C(/C=C/c1ccccc1)Nc1nnc(NCc2ccc(F)cc2)s1 [compound 326, (E)-N-{5-[(4-fluorobenzyl)amino]-1,3,4-thiadiazol-2-yl}-3-phenyl-2-propenamide]	32.7%
COc1ccccc1C(=O)Nc1nnc(NCCc2ccccc2)s1 [compound 327, 2-methoxy-N-[5-(phenethylamino)-1,3,4-thiadiazol-2-yl]benzamide]	32.5%

SMILES	inhibition at 25 µM
CCOc1ccc2ccccc2c1C(=O)Nc1nnc(NCCc2ccc(S(N)(=O)=O)cc2)s1 [compound 328, N-(5-{[4-(aminosulfonyl)phenethyl]amino}-1,3,4-thiadiazol-2-yl)-2-ethoxy-1-naphthamide]	32.4%
O=C(/C=C/c1ccccc1)Nc1nnc(NCc2cccc3ccccc23)s1 [compound 329, (E)-N-{5-[(1-naphthylmethyl)amino]-1,3,4-thiadiazol-2-yl}-3-phenyl-2-propenamide]	32.4%
O=C(Nc1nnc(NCCc2c[nH]cn2)s1)c1cc2ccccc2s1 [compound 330]	32.2%
O=C(/C=C/c1ccccc1)Nc1nnc(NCCC(c2ccccc2)c2ccccc2)s1 [compound 331, (E)-N-{5-[(3,3-diphenylpropyl)amino]-1,3,4-thiadiazol-2-yl}-3-phenyl-2-propenamide]	32.1%
CC(=O)NCCNc1nnc(NC(=O)c2c(C(C)C)cc(C(C)C)cc2C(C)C)s1 [compound 332, N-(5-{[2-(acetylamino)ethyl]amino}-1,3,4-thiadiazol-2-yl)-2,4,6-triisopropylbenzamide]	32%
O=C(/C=C/c1ccccc1)Nc1nnc(NCc2ccc(Cl)c(Cl)c2)s1 [compound 333, (E)-N-{5-[(3,4-dichlorobenzyl)amino]-1,3,4-thiadiazol-2-yl}-3-phenyl-2-propenamide]	31.9%
COc1ccccc1C(=O)Nc1nnc(NCc2cccc3ccccc23)s1 [compound 334, 2-methoxy-N-{5-[(1-naphthylmethyl)amino]-1,3,4-thiadiazol-2-yl}benzamide]	31.8%
N#Cc1ccc(C(=O)Nc2nnc(NCCc3ccc(S(N)(=O)=O)cc3)s2)cc1 [compound 335, N-(5-{[4-(aminosulfonyl)phenethyl]amino}-1,3,4-thiadiazol-2-yl)-4-cyanobenzamide]	31.7%
CCCCCCCC/C=C/CCCCCCCC(=O)Nc1nnc(NCCc2ccc(S(N)(=O)=O)cc2)s1 [compound 336, (E)-N-(5-{[4-(aminosulfonyl)phenethyl]amino}-1,3,4-thiadiazol-2-yl)-9-octadecenamide]	31.6%
O=C(Nc1nnc(NCCc2cccs2)s1)c1cccc([N+](=O)[O-])c1 [compound 337, 3-nitro-N-(5-{[2-(2-thienyl)ethyl]amino}-1,3,4-thiadiazol-2-yl)benzamide]	31.6%
CC(C)(C)OC(=O)CCNc1nnc(NC(=O)c2c(Cl)cccc2Cl)s1 [compound 338, tert-butyl 3-({5-[(2,6-dichlorobenzoyl)amino]-1,3,4-thiadiazol-2-yl}amino)propanoate]	31.6%
O=C(Nc1nnc(NCCNc2ccccc2)s1)c1ccc(I)cc1 [compound 339, N-{5-[(2-anilinoethyl)amino]-1,3,4-thiadiazol-2-yl}-4-iodobenzamide]	31.5%
CC(C)(C)OC(=O)CCNc1nnc(NC(=O)c2ccc3c(c2)C(=O)OC3=O)s1 [compound 340, tert-butyl 3-[(5-{[(1,3-dioxo-1,3-dihydro-2-benzofuran-5-yl)carbonyl]amino}-1,3,4-thiadiazol-2-yl)amino]propanoate]	31.5%
O=C(Nc1nnc(NCc2ccco2)s1)c1ccc(I)cc1 [compound 341, N-{5-[(2-furylmethyl)amino]-1,3,4-thiadiazol-2-yl}-4-iodobenzamide]	31.3%
CCCCCCCCCCCNc1nnc(NC(=O)/C=C/c2ccccc2)s1 [compound 342, (E)-3-phenyl-N-[5-(undecylamino)-1,3,4-thiadiazol-2-yl]-2-propenamide]	31.2%
